Reference: patent US20060246005A1, “Poly(peptide) as a chelator: methods of manufacture and uses” (THE BOARD OF REGENTS OF THE UNIVERSITY OF TEXAS SYSTEM, priority 2005, published 2006)

Test system: mammary tumor derived from RBA CRL-1747 cell line
Test: Scintigraphic (planar) imaging in breast tumor-bearing rats
Type: in vivo, rat
Conditions: 0.5-4 hrs post-injection
Text: The camera field of view is 20 cm×20 cm with an edge of 1.3 cm. The intrinsic spatial resolution is 3 mm and the matrix is 64×64.
To ascertain whether the tumor uptake by with ^99mTc-GAP-EDL was related to estrogen receptors, we performed a blocking study. […] Computer outlined regions of interest (ROI) (counts per pixel) were used to determine tumor-to-background count density ratios.
Scintigraphic images were obtained at 0.5-4.0 hrs after i.v. injection of ^99mTc-GAP-COX2i (300 μCi/rat, iv) and imaged at 0.5-4.0 hrs in mammary tumor-bearing rats (derived from RBA CRL-1747 cell line). Whole-body autoradiograms were obtained by a quantitative image analyzer (Cyclone Storage Phosphor System, Packard, Meridian, Conn.). Following intravenous injection of ^99mTc-GAP-COX2i (100 μCi/rat, iv), athymic nude mice bearing human uterine sarcoma in the right leg were killed at 1 hour and the body was fixed in carboxymethyl cellulose (3%). […] Each section was thawed and mounted on a slide. […]
Scintigraphic images were obtained at 0.5-4.0 hrs after i.v. injection of ^99“Tc-GAP-LAS or GAP-HCD (300 μCi/rat, iv) and imaged at 0.5-4.0 hrs in mammary tumor-bearing rats (derived from RBA CRL-1747 cell line). Whole-body autoradiogramrs were obtained by a quantitative image analyzer (Cyclone Storage Phosphor System, Packard, Meridian, Conn.). […]

O=C([O-])CN(CCN(CC(=O)[O-])CC(=O)[O-])CCN(CC(=O)[O-])CC(=O)[O-].[99Tc+4] [^99mTc-DTPA]
tumor visualization on scintigraphic images: tumor could be visualized
